Test results published in patent US9320723B2, “Methods of treating thyroid eye disease” (University of Rochester, priority 2010, dated 2016).
Like-named read-outs stand apart in the source and are kept apart here. Values belong to the compound of their own block, whether it stands above or below them.

What was measured:
[1] = tested on: primary orbital fibroblasts; test: 15d-PGJ2 on TGF-β1 induced HA and HAS mRNA; format: cell-based, human; details: 15d-PGJ2 0.5, 1.0 or 2.0 μM
Procedure: Primary orbital fibroblasts were isolated from Graves' disease patients undergoing orbital decompression surgery. The cells were grown in RPMI 1640 media containing 10% FBS, and incubated for 24 hours either with or without 2 ng/ml TGF-β1, and 0.5 μM, 1.0 μM, or 2.0 μM 15d-PGJ2. The amount of HA in the cell culture supernatant and pericellular extraction was measured by ELISA as in the preceding Examples. […] While TGF-β normally induces both HAST and HAS2 mRNA expression, TGF-β induced HA secretion was inhibited by 15d-PGJ2 (FIG. 18).

HMC-1 cells = test: Measurement of PGD2 produced by mast cells (PGD2-MOX EIA); format: cell-based, human; details: 10 μM A23187, 30 minutes, compared to untreated
Procedure: HMC-1 cells (1×10^6/well) were seeded into 6-well plates and cultured in IMDM medium with 5% FBS in the absence or presence of HQL-79 (H-PGDS inhibitor, 100 μM) at 37° C. for 60 minutes. The cells were then washed and resuspended in RPMI 1640 medium with 0.5% FBS. After 2 hours incubation, the cells were stimulated with 10 μM calcium ionophore A23187 for 30 minutes. The culture media were collected and PGD2 in the supernatants was quantified by PGD2-MOX EIA kits (Cayman Chemical).

[2] = tested on: human orbital fibroblasts; test: HA ELISA of culture medium of orbital fibroblasts treated with prostaglandins or drugs; format: cell-based; details: for HA levels after selective DP agonist: compared to untreated fibroblasts; for basal HA levels: 100 nM antagonist alone, compared with untreated; for PGD2- and PGJ2-induced HA production: 100 nM antagonist pretreatment 1 hour, PGD2 5 μM or PGJ2 2 μM
Source text: Orbital fibroblasts: Primary orbital fibroblasts were isolated from TED patients undergoing orbital decompression surgery. The protocols for orbital biopsy and blood sample, described below, were approved by the Internal Review Board and informed, written consent was obtained from all patients. […] Fibroblasts were characterized by their adherent morphology, expression of vimentin and types I and III collagen and absence of CD45, factor VIII or cytokeratin. Fibroblasts were used at the earliest passage possible (between passages 4 to 10). Human T cells: Lymphocytes were isolated from 60 ml of peripheral blood obtained during orbital decompression surgery. Whole blood was separated over a Ficoll-Paque Plus Gradient (Amersham Biosciences, Piscataway, N.J.) to obtain peripheral blood mononuclear cells. T cells were enriched using CD3/CD28 T cell Expander beads (Invitogen). […] After that, 50 U/ml of recombinant interleukin-2 (rIL-2) was added to the culture and incubated for another 2-3 days. On day 5, cells were diluted to a concentration of 0.5×10^6 cells/ml in medium containing 50 U/ml rIL-2 and incubated for an additional 3-7 days. Cellular purity was assessed using an anti-CD3-PE antibody (BD Biosciences, San Jose, Calif.) and analyzed on a FACSCalibur flow cytometer (BD Biosciences).
Aliquots of culture medium were removed at indicated time points, centrifuged (5 min, 8,000×g at 4° C.) and HA levels quantified by enzyme-linked immunosorbent assay (ELISA) according to the manufacturer's protocol (R&D Systems). Briefly, samples were incubated in HA-binding protein (HABP)-coated microwells, allowing HA in samples to react with the immobilized HABP. After the removal of unbound molecules by washing, biotinylated-HABP was added to the microwells. Following a second wash, streptavidin-conjugated to horseradish peroxidase was added. After the last wash, the chromogenic substrate was added and HA levels were determined using a Varioskan Flash plate reader (Thermo Fisher Scientific, Milford, Mass.).

[3] = tested on: human orbital fibroblasts; test: qRT-PCR of HAS mRNA after PGD2 or BW245C; format: cell-based; details: BW245C 10 μM
Procedure: RNA was isolated from orbital fibroblasts or T cells using an RNeasy Mini kit (Qiagen). RNA was reverse transcribed to cDNA using iScript cDNA synthesis kit (Bio-Rad) and diluted 5-fold in RNase-free H2O. Forward and reverse primers for each gene are shown in Table I. RT-PCR: The PCR reaction was performed using Qiagen Fast Cycling PCR kit for 30 cycles in a Bio-Rad thermal cycler. The PCR product was visualized on a 5% acrylamide gel stained with ethidium bromide. Amplifications without reverse transcriptase were carried out as negative controls. qRT-PCR: qRT-PCR was performed in a Bio-Rad iCycler containing B-R SYBR Green SuperMix for IQ (Quanta Biosciences, Gaithersburg, Md.). Efficiency of the amplification was determined to be >90%.
Amplification of 7S ribosomal RNA was carried out for each cDNA (in triplicate) for normalization. Threshold cycle number (Ct) of amplification in each sample was determined by Bio-Rad software and the relative mRNA abundance was calculated as the Ct for amplification of a gene-specific cDNA minus average Ct for 7S, expressed as a power of 2; i.e., 2^ΔCt.

orbital fibroblasts = test: Measurement of intracellular cAMP (TR-FRET immunoassay); format: cell-based, human; details: PGD2 5 μM, BW245C 10 μM, up to 60 minutes
Procedure: cAMP levels were quantified using a time-resolved fluorescence resonance energy transfer (TR-FRET) immunoassay from Perkin Elmer (Waltham, Mass.) according to the manufacturer's protocol. Briefly, orbital fibroblasts were detached with a non-enzymatic cell dissociation solution (Versene, Invitrogen) and re-suspended in Stimulation Buffer (pH 7.4; 1×HBSS buffer containing 5 mmol/L HEPES buffer and 0.01%-0.1% BSA) containing 0.5 mM IBMX and labeled with the Alexa Fluor® 647-labeled anti-cAMP antibody. Finally, the cells were incubated with drugs at the indicated times. Following addition of the detection buffer, the amount of cAMP signal was measured.

[4] = tested on: human orbital fibroblasts; test: Quantitation of secreted, pericellular and intracellular HA by ELISA, TGF-β1 treatment; format: cell-based; details: for inhibition at 10 µM: Homo sapiens, Fibroblast, 2 ng/ml TGF-β1, 24 hours; for cell number after treatment: cells counted in the FIG. 10 experiment
Procedure: Confluent monolayers of orbital fibroblasts were serum starved in 0.5% FBS RPMI-1640 medium for three days and pretreated with different concentrations of Pio or Rosi for 1 hour and then treated with or without 2 ng/ml TGF-β1 for 24 hours. After treatments, an aliquot of culture medium (secreted HA) was removed and centrifuged at 8,000×g at 4° C. for 5 minutes and the supernatant was saved for later analysis. The cells were washed twice with PBS and treated with 0.25% trypsin-EDTA solution (GIBCO, Invitrogen) at 37° C. for 5 minutes, the reaction was stopped by addition of culture medium and cell number was determined using a hemocytometer. The cells were then centrifuged and the supernatant was collected and incubated at 100° C. for 10 minutes to inactivate trypsin activity. This supernatant was saved for pericellular HA detection. The cell pellet was washed with PBS once and digested with 120 μg/ml proteinase K in 0.1% SDS/0.1 M Tris-HCl (pH 7.6) at 37° C. for 1 hour, and proteinase K was inactivated by incubation at 100° C. for 10 min. The cell lysate was centrifuged and supernatant analyzed for intracellular HA.
The amount of HA in each extract (secreted HA, pericellular HA and intracellular HA) was measured by ELISA based on the specific interaction of HA with HA binding protein (HABP). The HA detection kit was purchased from R&D system (Minneapolis, Minn.). Briefly, diluted samples were incubated in HABP-coated microwells, allowing HA present in samples to react with the immobilized HABP. After extensive washing, biotinylated HABP was added to the microwells to form complexes with bound HA. Following another round of washing, streptavidin conjugated horseradish peroxidase was added. After a brief incubation period and washing, chromogenic substrate was added and HA levels were determined using a Varioskan Flash plate reader (Thermo Fisher Scientific, Milford, Mass.). A fraction of the samples were pretreated with Streptomyces hyaluronidase (2 U/ml at 37° C. for 2 hour) before subjected to the ELISA assay as a negative control. Furthermore, an additional 50 ng/ml (final concentration) of free soluble HA was added to a fraction of the cell lysate samples to confirm that there are no inhibitory factors present and that the assays show the expected additivity when a known amount of exogenous HA is included.

[5] = tested on: human orbital fibroblasts; details: previously reported (Feldon et al. 2006); cited from earlier work
[6] = tested on: human orbital fibroblasts; test: qRT-PCR of HAS mRNA after TGF-β1 with or without Pio or Rosi; format: cell-based; details: 10 μM, 6 hours
Source text: RNA was isolated from orbital fibroblast strains using the RNeasy Mini kit according to the manufacturer's protocol (Qiagen, Valencia, Calif.) and reverse transcripted to cDNA using iScript cDNA synthesis kit (Bio-Rad, Hercules, Calif.). Primers for human HAS1, 2, 3 and 7S as well as qRT-PCR method to detect relative abundance of mRNA are identified supra. Primers for human PPARγ1 (NM138711) and PPARγ 2 (NM015869) mRNA were 5′-AAAGAAGCCGA-CACTAAACC-3′ (SEQ ID NO:3) (sense), 5′-CTTCCATTACGG-AGAGATCC-3′ (SEQ ID NO:4) (antisense) and, 5′-GCGATTC-CTTCACTGATAC-3′ (SEQ ID NO:5) (sense), 5′-CTTCCATT-ACGGAGAGATCC-3′ (SEQ ID NO:6) (antisense), respectively.

[7] = tested on: human orbital fibroblasts; test: Cell viability assay (XTT); format: cell-based; details: 24 hours, with or without TGF-β1
Procedure: Cell viability was assayed using the colorimetric XTT (2,3-bis-(2-methoxy-4-nitro-5-sulfophenyl)-2H-tetrazolium-5-carboxanilide) assay kit (Roche, Germany). Briefly, orbital fibroblasts were seeded in a 96-well plate and cultured with various treatments. Twenty hours after treatment, 50 μl of XTT labeling mixture was added and cells were incubated at 37° C. for 4 hours. The amount of cleaved XTT product generated by metabolically active cells was assayed by measuring absorbance using an ELISA plate reader at 480 nm with a reference wavelength at 650 nm. Cell viability results were also confirmed by Trypan blue staining.

Compound: CCCCC/C=C/C=C1/C(=O)C=C[C@@H]1C/C=C\CCCC(=O)O [15d-PGJ2, 15-deoxy-Δ12,14-Prostaglandin J2]
- TGF-β induced HAS2 mRNA expression ([1]; 2 ng/ml TGF-β1): inhibited TGF-β induced HAS2 mRNA expression
- TGF-β induced HAST mRNA expression ([1]; 2 ng/ml TGF-β1): enhanced TGF-β induced HAST mRNA expression
- TGF-β induced HA secretion ([1]; 2 ng/ml TGF-β1, 24 hours): inhibited

Compound: CNc1ccc2oc(C[C@H]3O[C@@]4(CC[C@H]3C)O[C@H]([C@H](C)C(=O)c3ccc[nH]3)[C@H](C)C[C@H]4C)nc2c1C(=O)O [A23187]
- PGD2 production on activation (HMC-1 cells): significantly increased PGD2 production

Compound: O=C(O)CCCCCCC1C(=O)NC(=O)N1CCC(O)C1CCCCC1 (stereo not drawn) [BW245C]
- HA levels after selective DP agonist [2]: dose-dependently increased HA levels
- HAS3 mRNA increase ([3]; 6 hours): 4.8±0.06
- HAS1 mRNA fold increase ([3]; two hours, compared to vehicle): 329±128 fold
- HAS2 mRNA fold increase ([3]; two hours, compared to vehicle): 17±0.14 fold
- intracellular cAMP production (orbital fibroblasts): significantly increased intracellular cAMP production within 15 to 30 minutes

Compound: CCCCCC(=O)CCC1C(=O)CC(O)C1C/C=C\CCCC(=O)O (stereo not drawn) [DK-PGD2, 13,14-dihydro-15-keto-PGD2]
- HA levels after selective DP agonist [2]: did not significantly increase HA levels

Compound: O=C(Nc1ccccc1)c1cc([N+](=O)[O-])ccc1Cl [GW9662]
- effect of GW9662 on inhibition of TGF-β1 induced HA synthesis by Pio or Rosi ([4]; 1 μM GW9662 pretreatment 1 hour, 10 μM Pio or Rosi, 24 hours): did not significantly reduce the ability of either Pio or Rosi to inhibit TGF-β1 induced HA synthesis
- PPARγ ligand-driven adipogenesis [5]: completely inhibited

Compound: CS(=O)(=O)c1cc(F)cc2c3c(n(Cc4ccc(Cl)cc4)c12)[C@@H](CC(=O)O)CC3 [MK-0524]
- basal HA levels [2]: neither MK-0524 (MK) nor Ramatroban (RAM) influenced basal HA levels
- PGD2- and PGJ2-induced HA production ([2]; 18 hours): completely blocked the ability of both PGD2 and PGJ2 to induce HA production

Compound: CCCCC[C@H](O)/C=C/[C@H]1C(=O)C=C[C@@H]1C/C=C\CCCC(=O)O [PGJ2]
- concentration yielding the largest induction of HA ([2]; 18 hours, strains OF1 and OF2): 2 µM
- HA synthesis (HA ELISA) ([2]; increasing concentrations, 18 hours, strains OF1 and OF2): significantly increased HA synthesis by both fibroblast strains in a dose-dependant manner
- adipogenesis in human orbital fibroblasts [5]: induce adipogenesis

- cell number after treatment [4]: No significant changes in cell number
Compound: CCc1ccc(CCOc2ccc(CC3SC(=O)NC3=O)cc2)nc1 (stereo not drawn) [Pio, pioglitazone]
- inhibition at 10 µM ([4]; read-out: inhibition of TGF-β1 mediated pericellular accumulation of HA): 40 ± 2.2%
- inhibition at 10 µM ([4]; read-out: inhibition of TGF-β1 mediated secretion of HA): 52 ± 2.2%
- inhibition of TGF-β1 mediated HAS1 mRNA induction [6]: about 50%
- inhibition of TGF-β1 mediated HAS2 mRNA induction [6]: about 50%
- cell viability (XTT) [7]: no significant difference in cell viability among treatment conditions

Compound: O=C(O)CCn1c2c(c3ccccc31)C[C@H](NS(=O)(=O)c1ccc(F)cc1)CC2 [Ramatroban]
- basal HA levels [2]: neither MK-0524 (MK) nor Ramatroban (RAM) influenced basal HA levels
- PGD2- and PGJ2-induced HA production ([2]; 18 hours): unable to prevent the induction of HA by PGD2 or PGJ2

- cell number after treatment [4]: No significant changes in cell number
Compound: CN(CCOc1ccc(CC2SC(=O)NC2=O)cc1)c1ccccn1 (stereo not drawn) [Rosi, rosiglitazone]
- cell viability (XTT) [7]: no significant difference in cell viability among treatment conditions
